Read-outs that look alike come from different tables or passages of the source.
Tests used:
Type in all cases: cell-based
[1] = test system: HFF-1; experiment: Cytotoxicity assay (resazurin); details: Homo sapiens, HFF-1 cells
[2] = test system: MALME-3M; experiment: Melanoma cytotoxicity assay (resazurin); details: human, 24 h
Protocol: On day 1, the cell line trypsinized and centrifuged to form cell pellet. The pellet was diluted in media, then counted using Countess automated cell counter. Approximately 4000 cells (198 uL) per well plated in […]. A control well of 200 uL growth media was also prepared. Wells closest to plate perimeter were filled with 200 uL PBS to prevent inner well evaporation. The 96 well plates are incubated in 37° C. incubator at 5% CO2 for 24 hours.
On day 2, compounds were added (in triplicate) along with DMSO/Dacarbazine controls (2 uL) added to bring wells to volume of 200 μL. The 96 well plates are incubated in 37° C. incubator at 5% CO2 for 24 hours.
On day 3, 40 μL of 0.15 mg/ml reszurin solution added to wells. Samples were placed in a 37° C. incubator at 5% CO2 for 6 hours. Excitation and emission for fluorescence measured at 544 nm and 590 nm using BMG Labtech Fluostar Optima plate reader
Percent viability determined by taking average of each triplicate well fluorescence and subtracting GM well reading to remove the background signal. This difference is then divided by the average of the negative control (DMSO) wells to determine percent viability.
IC50s were determined by using cereal dilution of compound to determine viability. Viabilities and concentration of cells are analyzed in Graphpad Prism by creating sigmoidal curve graph, which will determine the IC50 concentration.
We analyzed the ability of the thiazole-androstane derivatives to inhibit growth in various melanoma cell lines. The growth inhibition against melanoma cell lines of various compound is shown below in Tables 19 and 20. Inhibition results are reported as the IC50 concentration in μM of the indicated compound or as the percent viability […] of the indicated compound. NA=not available.

[3] = test system: SK-MEL-5; experiment: Melanoma cytotoxicity assay (resazurin); details: human, 24 h
Method in brief: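 Growth inhibition was scored by resazurin reduction over 6 h, read by fluorescence, after cells had been treated with serially diluted compounds for 24 h. Background from medium-only wells was subtracted and signal expressed relative to DMSO controls.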

[4] = test system: LOX IMVI; experiment: Melanoma cytotoxicity assay (resazurin); details: for IC50: Homo sapiens, LOX IMVI melanoma cells; for LOX-IMVI (% viability): human, 24 h
Method in brief: (§1)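 Viability read by resazurin fluorescence (ex 544, em 590 nm) after 6 h, following 24 h compound exposure of cells plated 24 h earlier (~4000/well). Triplicate means, minus medium blank, divided by DMSO control; IC50 derived from sigmoidal dose-response curves.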

[5] = test system: SK-MEL-28; experiment: Melanoma cytotoxicity assay (resazurin); details: for IC50: Homo sapiens, SK-MEL-28 melanoma cells; for SK-MEL-28 (% viability): human, 24 h
Method in brief: as §1

[6] = test system: SK-MEL-25; experiment: Melanoma cytotoxicity assay (resazurin); details: for IC50: Homo sapiens; for SK-MEL-25 (% viability): human, 24 h
Method in brief: as §1

[7] = SK-MEL-25 melanoma cells (head prints SK-25), read-out: SK-25 IC50

| SMILES | IC50 ([1]; read-out: HFF-1 (IC50)) [µM] | MALME-3M (% viability) [2] [%] | SK-MEL-5 (% viability) [3] [%] | IC50 [4] [µM] | LOX-IMVI (% viability) [4] [%] | IC50 [5] [µM] | SK-MEL-28 (% viability) [5] [%] | IC50 [6, 7] [µM] | SK-MEL-25 (% viability) [6] [%] | IC50 ([1]; read-out: IC50 in cell line HFF-1) [µM] | IC50 ([4]; 24 hours, resazurin) [µM] | IC50 ([5]; 24 hours, resazurin) [µM] | IC50 ([6]; SK-MEL-25 melanoma cells, 24 hours, resazurin, read-out: SK-MEL-25 (IC50)) [µM] |
| --- | --- | --- | --- | --- | --- | --- | --- | --- | --- | --- | --- | --- | --- |
| C[C@]12CC[C@H]3[C@@H](CC=C4c5sc(Nc6ccc(F)cc6)nc5CC[C@@]43C)[C@@H]1CC[C@@H]2O [IIIa.12, (1S,2R,13R,14S,17S,18S)-7-(4-fluoroanilino)-2,18-dimethyl-8-thia-6-azapentacyclo[11.7.0.02,10.05,9.014,18]icosa-5(9),6,10-trien-17-ol] | 24 | 35.97 | 3.66 | 5.2 | 12 | 10 | 2.35 | 7 | 7.33 | – | – | – | – |
| C[C@]12CC[C@H]3[C@@H](CC=C4c5sc(Nc6ccc(F)cc6F)nc5CC[C@@]43C)[C@@H]1CC[C@@H]2O [IIIa.13, (1S,2R,13R,14S,17S,18S)-7-(2,4-difluoroanilino)-2,18-dimethyl-8-thia-6-azapentacyclo[11.7.0.02,10.05,9.014,18]icosa-5(9),6,10-trien-17-ol] | 25 | 20.83 | 4.9 | 6.42 | – | 11 | 3.92 | 8 | 8.72 | – | – | – | – |
| C[C@]12CC[C@H]3[C@@H](CC=C4c5sc(Nc6ccccn6)nc5CC[C@@]43C)[C@@H]1CC[C@@H]2O [IIIa.24, (1S,2R,13R,14S,17S,18S)-2,18-dimethyl-7-(2-pyridylamino)-8-thia-6-azapentacyclo[11.7.0.02,10.05,9.014,18]icosa-5(9),6,10-trien-17-ol] | > 20 | 10.69 | 2.25 | > 20 | – | – | 1.50 | – | 1.76 | – | – | – | – |
| Cc1ccc(Nc2nc3c(s2)C2=CC[C@H]4[C@@H]5CC[C@H](O)[C@@]5(C)CC[C@@H]4[C@@]2(C)CC3)cc1 [IIIa.33, (1S,2R,13R,14S,17S,18S)-2,18-dimethyl-7-(4-methylanilino)-8-thia-6-azapentacyclo[11.7.0.02,10.05,9.014,18]icosa-5(9),6,10-trien-17-ol] | 13 | 23.03 | 1.21 | 4.64 | 6 | 6 | 0.90 | 6 | 7.53 | 13 | < 10 | < 10 | < 10 |
